# Assay results taken from PubChem BioAssay (NCI).
#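 In this assay, cells in 96-well plates receive the compound at five concentrations for 48 hours. Endpoints are linearly interpolated between the surrounding concentrations. The concentration for 50% growth inhibition is given as GI50. TGI marks complete inhibition of growth.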
# How the values were obtained:
# Test in all cases: NCI tumour cell line growth inhibition, 48 h
# [1] = test system: K-562 leukemia
# [2] = test system: SW-620 colon
# [3] = test system: SK-OV-3 ovarian
# [4] = test system: RPMI-8226 leukemia
# [5] = test system: NCI-H522 lung
# [6] = test system: CCRF-CEM leukemia
# [7] = test system: SNB-75 CNS
# [8] = test system: SF-268 CNS
# [9] = test system: SN12C renal
# [10] = test system: SK-MEL-5 melanoma
# [11] = test system: TK-10 renal
# [12] = test system: T-47D breast
# [13] = test system: OVCAR-3 ovarian
# [14] = test system: OVCAR-8 ovarian
# [15] = test system: MDA-MB-231 breast
# [16] = test system: SF-295 CNS
# [17] = test system: KM12 colon
# [18] = test system: SK-MEL-28 melanoma
# [19] = test system: M14 melanoma
# [20] = test system: OVCAR-4 ovarian
# [21] = test system: HCT-116 colon
# [22] = test system: PC-3 prostate
# [23] = test system: UACC-62 melanoma
# [24] = test system: MALME-3M melanoma
# [25] = test system: RXF 393 renal
# [26] = test system: MDA-MB-468 breast
# [27] = test system: SK-MEL-2 melanoma
# [28] = test system: HOP-92 NSCLC
# [29] = test system: SNB-19 CNS
# [30] = test system: HL-60(TB) leukemia
# [31] = test system: NCI-H23 lung
# [32] = test system: HOP-62 NSCLC
# [33] = test system: MCF7 breast
# [34] = test system: EKVX NSCLC
# [35] = test system: HT29 colon
# [36] = test system: SF-539 CNS
# [37] = test system: OVCAR-5 ovarian
# [38] = test system: MDA-MB-435
# [39] = test system: HS 578T breast
# [40] = test system: HCC-2998 colon
# [41] = test system: DU-145 prostate
# [42] = test system: HCT-15 colon
smiles,measurement,setting,value
CN(CCSSCCN1CCOCC1)C(=O)Oc1cc2c(c3ccccc13)[C@H](CCl)CN2C(=O)c1cc2cc(OCCCN3CCC3)ccc2[nH]1,GI50,[1],0.0751 µM
same,TGI,[1],2.67 µM
same,GI50,[2],0.0464 µM
same,TGI,[2],2.7 µM
same,GI50,[3],0.00867 µM
same,TGI,[3],0.101 µM
same,GI50,[4],0.473 µM
same,TGI,[4],5.18 µM
same,GI50,[5],0.273 µM
same,TGI,[5],1.02 µM
same,GI50,[6],0.102 µM
same,TGI,[6],9.89 µM
same,GI50,[7],0.038 µM
same,TGI,[7],0.173 µM
same,GI50,[8],0.0244 µM
same,TGI,[8],0.849 µM
same,GI50,[9],0.0649 µM
same,TGI,[9],1.44 µM
same,GI50,[10],0.00632 µM
same,TGI,[10],0.0321 µM
same,GI50,[11],0.971 µM
same,TGI,[11],5.81 µM
same,GI50,[12],0.287 µM
same,TGI,[12],1.7 µM
same,GI50,[13],0.236 µM
same,TGI,[13],2.38 µM
same,GI50,[14],0.0247 µM
same,TGI,[14],0.136 µM
same,GI50,[15],0.0711 µM
same,TGI,[15],0.178 µM
same,GI50,[16],0.00304 µM
same,TGI,[16],0.0108 µM
same,GI50,[17],0.0306 µM
same,TGI,[17],5.43 µM
same,GI50,[18],0.0291 µM
same,TGI,[18],0.0667 µM
same,GI50,[19],0.0101 µM
same,TGI,[19],0.0426 µM
same,GI50,[20],0.615 µM
same,TGI,[20],2.28 µM
same,GI50,[21],0.0452 µM
same,TGI,[21],5.04 µM
same,GI50,[22],0.0396 µM
same,TGI,[22],1.77 µM
same,GI50,[23],0.00625 µM
same,TGI,[23],0.0321 µM
same,GI50,[24],0.0481 µM
same,TGI,[24],0.123 µM
same,GI50,[25],0.0406 µM
same,TGI,[25],0.0829 µM
same,GI50,[26],0.0402 µM
same,TGI,[26],0.173 µM
same,GI50,[27],0.0494 µM
same,TGI,[27],0.0959 µM
same,GI50,[28],0.382 µM
same,TGI,[28],1.44 µM
same,GI50,[29],0.00665 µM
same,TGI,[29],0.127 µM
same,GI50,[30],0.131 µM
same,TGI,[30],1.4 µM
same,GI50,[31],0.0101 µM
same,TGI,[31],0.0433 µM
same,GI50,[32],0.00251 µM
same,TGI,[32],0.0288 µM
same,GI50,[33],0.00752 µM
same,TGI,[33],2.64 µM
same,GI50,[34],0.042 µM
same,TGI,[34],0.134 µM
same,GI50,[35],0.0699 µM
same,TGI,[35],25 µM
same,GI50,[36],0.0513 µM
same,TGI,[36],0.123 µM
same,GI50,[37],0.0675 µM
same,TGI,[37],0.266 µM
same,GI50,[38],0.0367 µM
same,TGI,[38],0.104 µM
same,GI50,[39],0.178 µM
same,TGI,[39],1.1 µM
same,GI50,[40],0.027 µM
same,TGI,[40],0.102 µM
same,GI50,[41],0.0119 µM
same,TGI,[41],2.98 µM
same,GI50,[42],0.0574 µM
same,TGI,[42],0.642 µM
